Results: article PMC9967645, “OAT3 Participates in Drug–Drug Interaction between Bentysrepinine and Entecavir through Interactions with M8—A Metabolite of Bentysrepinine—In Rats and Humans In Vitro” (Molecules, 2023)
Several values for one entry are separate records, joined by “and”; a condition that tells them apart may be missing. Identical values can stand only once. Like-named read-outs stand apart in the source and are kept apart here.

Columns and labels:
hOAT3 = biological target: T1, hOAT3 (Homo sapiens, UniProt Q8TCC7); experiment: In vitro uptake assay in hOAT3-HEK293 cells
T1 sequence (Q8TCC7 1-542): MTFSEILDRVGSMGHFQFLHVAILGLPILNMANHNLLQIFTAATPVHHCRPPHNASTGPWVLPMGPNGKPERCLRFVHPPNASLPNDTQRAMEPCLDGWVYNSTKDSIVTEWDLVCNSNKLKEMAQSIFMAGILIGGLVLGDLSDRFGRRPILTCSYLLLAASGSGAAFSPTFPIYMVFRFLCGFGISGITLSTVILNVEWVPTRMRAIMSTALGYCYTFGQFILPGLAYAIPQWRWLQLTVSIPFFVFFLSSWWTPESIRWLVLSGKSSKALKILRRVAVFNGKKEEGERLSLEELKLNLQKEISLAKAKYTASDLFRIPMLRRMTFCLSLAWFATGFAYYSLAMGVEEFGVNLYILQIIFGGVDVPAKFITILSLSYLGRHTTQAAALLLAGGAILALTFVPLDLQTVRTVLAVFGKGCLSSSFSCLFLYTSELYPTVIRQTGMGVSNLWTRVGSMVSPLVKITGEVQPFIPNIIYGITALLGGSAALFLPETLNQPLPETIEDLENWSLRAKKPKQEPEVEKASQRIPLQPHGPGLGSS
Description: The hOAT1-HEK293, hOAT3-HEK293 and mock cells were cultured in Dulbecco modified Eagle medium (DMEM) containing 10% fetal bovine serum (FBS) and 1% penicillin/streptomycin in an atmosphere of 5% CO2 air at 37 °C. The HEK293 cells were plated on 24-well plates at a density of 5 × 10^5 cells/well. […] Uptake assay was initiated by adding 1 mL of the transporter buffer containing Y101, M8, ETV or probe substrate. Following incubation with gentle shaking, the uptake was terminated at designated time by removing the transporter buffer and washing cells three times with 1 mL of ice-cold HBSS. Next, substrates of Y101, M8, ETV, PAH and ES in cell monolayer were released by lysing the cells with 0.3 mL of 0.1% Triton X-100 for 2 h and determined by liquid chromatography–tandem mass spectrometry (LC–MS/MS). In the time-course uptake assay, Y101 (2.0 µM) and M8 (10 µM) in the presence or absence of PRO (100 µM) were measured in hOAT1-HEK293, hOAT3-HEK293 and mock cells. The concentration-dependent uptake of M8 was determined in hOAT3-HEK293 cells, and incubation time (5 min) was optimized. The uptake of M8 (10 µM) with or without ETV was examined in hOAT3-HEK293 cells. The uptake of ETV (10 µM) with or without Y101 or M8 was also measured in hOAT1-HEK293 and hOAT3-HEK293 cells, respectively. Furthermore, PAH and ES at concentrations of 10 µM were used as positive control in hOAT1-HEK293 and hOAT3-HEK293 cells, respectively. Protein concentrations were measured by the bicinchoninic acid procedure (Solarbio, Beijing, China) using bovine serum albumin as the standard.
(§1) Biological samples were prepared as previously described. Aliquots (50 µL) of urine, plasma, kidney homogenates, or cell lysates were individually mixed with 150 µL methanol and 50 µL working solution of internal standard (acetaminophen or bestatin), followed by vortexing for 1 min and centrifuging at 13,800 g for 10 min. […] The resulting supernatant (1 µL) was subjected to LC-MS/MS for the assessment of Y101, M8, M9 and ETV, respectively. […] The concentrations of ETV, Y101, M8 and M9 were determined by an AB QTRAP 5500 LC–MS/MS System (Foster City, CA, USA) as previously described. Chromatographic separation was achieved on an Infinitylab Poroshell 120 EC-C18 (50 mm × 2.1 mm, 2.7 µm, Agilent Technology Inc., CA, USA) at 40 °C. The mobile phase consisted of formic acid-acetonitrile (0.05:100, v/v) and a mixture of 1 mmol-ammonium acetate-acetonitrile-formic acid (95:5:0.05, v/v/v) at a flow rate of 0.3 mL/min. […] Analyst1.5.2 software was used for data processing and analysis.

[1] = Pharmacokinetic study in rats, intravenous Y101 with or without PRO; type: in vivo, Sprague–Dawley (SD) rats; details: for Tmax / half-life / AUC(0-inf) / AUC(0-t) / Cmax: male, Sprague-Dawley, rat, plasma, iv, 25 mg/kg, n = 3
Description: The effect of PRO on the pharmacokinetics of Y101 was studied in rats. Male rats surgically prepared with indwelling jugular cannula were randomly divided into two groups (n = 3): (1) Y101 alone (25 mg/kg) as a control and (2) Y101 + PRO (25 mg/kg for Y101 and 100 mg/kg for PRO) as an experimental group. The intravenous dose of Y101 was prepared as previously described. Both Y101 and PRO were injected by caudal vein to rats at volume of 5 mL/kg.
(§2) Following administration, serial blood samples were collected through jugular vein pre-dose (0 h) and post-dose at 0.033, 0.083, 0.25, 0.5, 1, 1.5, 2, 3, 4, 6, 9, 12, 24 and 30 h in heparinized Eppendorf tubes. The resulting samples were centrifuged at 13,800× g at 4 °C for 5 min to obtain plasma. All plasma samples were stored at −70 °C until analysis.
(§3) Biological samples were prepared as previously described.
(§4) Non-compartmental analysis with Phenix WinNonlin (version 8.1; Pharsight, Certara Corp, Princeton, NJ) was used to calculate the main pharmacokinetic parameters of ETV, Y101, M8 and M9 for individual rats. The observed values were reported for maximum concentration (Cmax) and time to reach maximum concentration (Tmax), while the area under the plasma concentration–time curve (AUC) was calculated via the default trapezoidal-up, log-trapezoidal-down approach.

[2] = Pharmacokinetic DDI study in rats, intravenous Y101 and/or ETV; type: in vivo, Sprague–Dawley (SD) rats; details: Sprague-Dawley, rat, plasma, n = 4
Description: (§5) Additionally, DDI between Y101 and ETV was investigated by monitoring time-course plasma Y101 in rats with surgery as described above. Animals were randomly placed into three groups (n = 4): (1) Y101 alone (25 mg/kg for intravenous treatment and 60 mg/kg for oral administration); (2) ETV (0.06 mg/kg); and (3) Y101 (25 mg/kg for intravenous treatment and 60 mg/kg for oral administration) + ETV (0.06 mg/kg). ETV was dissolved in saline at concentration of 12 µg/mL. Rats received an oral or intravenous dose of Y101 and/or ETV at volume of 5 mL/kg. The doses used in in vivo pharmacokinetic studies were selected in accordance with therapeutic doses of Y101 and ETV commonly used clinically and in previous studies.
as §2, §3, §4

[3] = Pharmacokinetic DDI study in rats, oral Y101 and/or ETV; type: in vivo, Sprague–Dawley (SD) rats; details: Sprague-Dawley, rat, plasma, n = 4
Description: as §5, §2, §3, §4

[4] = Renal excretion study in rats (cumulative urinary excretion, renal clearance); type: in vivo, Sprague–Dawley (SD) rats; details: for CL renal: Sprague-Dawley, rat, urine, iv, read-out: CLR (renal clearance) (converted)
Description: To investigate the effects of PRO on the renal excretion of Y101 and its metabolites, rats received an intravenous dose of Y101 (25 mg/kg) or Y101 + PRO (25 mg/kg for Y101 and 100 mg/kg for PRO) via the caudal vein. In order to verify the DDI between Y101 and ETV in renal excretion, rats received an intravenous dose of Y101 (25 mg/kg) and/or ETV (0.06 mg/kg) by caudal vein.
[…] Subsequently, urine samples were stored at −70 °C until analysis. The cumulative urinary excretion and renal clearance (CLR) were calculated as previously described.
as §3

rat kidney slices = experiment: In vitro uptake assay in kidney slices; type: in vitro ADME; details: M8 5.0 µM; for inhibition of the uptake of M8 in kidney slices: PCG 0.2 and 0.5 mM, PRO 0.1 mM, PAH 0.2 and 0.5 mM, TEA 0.2 mM, 10 min, ETV 10 µM
Description: The renal cortex was cut into 300 µm slices with a ZQP-86 tissue slicer (Shanghai Zhisun Equipment Co., Ltd., Shanghai, China; surface area 0.15 cm^2). […] Next, the kidney slices were prepared as previously described. Two slices per well were placed into 37 °C buffer filled with oxygen for pre-incubation for 3 min and then gently moved into a 24-well cell culture plate containing 1 mL oxygenated buffer at 4 °C or 37 °C. The uptakes of ETV (10 µM), Y101 (2.0 µM), M8 (5.0 µM) and M9 (1.0 µM) were measured at 5, 10, 15 and 30 min after the treatment, respectively. […] Following incubation at the designated time, kidney slices were collected, rinsed with ice-cold buffer three times, and dried on filter paper. After weighing and homogenization (IKA-T 10 homogenizer; IKA, Staufen, Germany), the concentrations of Y101, M8, M9 and ETV of kidney slice homogenates were determined as in the description below.
as §1

[5] = i.v. Y101 25 mg/kg + PRO 100 mg/kg vs Y101 alone
[6] = i.v. Y101 25 mg/kg + PRO 100 mg/kg
[7] = i.v. Y101 25 mg/kg + ETV 0.06 mg/kg
[8] = oral Y101 60 mg/kg + ETV 0.06 mg/kg

C[C@]12CC[C@@H]3c4ccc(OS(=O)(=O)[O-])cc4CC[C@H]3[C@@H]1CCC2=O.[Na+] [ES, Estrone 3-sulfate sodium salt, reference compound]
substrate of hOAT3 (uptake in hOAT3-HEK293 vs mock-HEK293 cells) (hOAT3; Y101 2.0 µM, M8 10 µM, ES 10 µM): selectively accumulated

C[N+](C)([O-])CCOc1ccc(CC(NC(=O)c2ccccc2)C(=O)O)cc1 (stereo not drawn) [M9]
elevation in AUC value on co-administration of PRO [1, 5]: 56% | increase in Cmax value on co-administration of PRO [1, 5]: 1.4 fold | Tmax [1, 6]: 1.33 h | half-life [1, 6]: 1.32 h | AUC(0-inf) [1, 6]: 536 ng·h/mL | AUC(0-t) [1, 6]: 527 ng·h/mL | Cmax [1, 6]: 219 ng/mL | AUC(0-inf) ([1]; i.v. Y101 25 mg/kg alone): 343 ng·h/mL | AUC(0-t) ([1]; i.v. Y101 25 mg/kg alone): 335 ng·h/mL | Cmax ([1]; i.v. Y101 25 mg/kg alone): 156 ng/mL | Tmax ([1]; i.v. Y101 25 mg/kg alone): 1.17 h | half-life ([1]; i.v. Y101 25 mg/kg alone): 1.01 h | AUC(0-inf) [2, 7]: 471 ng·h/mL | AUC(0-t) [2, 7]: 464 ng·h/mL | Cmax [2, 7]: 171 ng/mL | AUC(0-inf) ([2]; i.v. Y101 25 mg/kg alone): 553 ng·h/mL | AUC(0-t) ([2]; i.v. Y101 25 mg/kg alone): 547 ng·h/mL | Cmax ([2]; i.v. Y101 25 mg/kg alone): 134 ng/mL | Tmax [2, 7]: 1.25 h | half-life [2, 7]: 1.8 h | Tmax ([2]; i.v. Y101 25 mg/kg alone): 1.13 h | half-life ([2]; i.v. Y101 25 mg/kg alone): 1.14 h | AUC(0-inf) [3, 8]: 657 ng·h/mL | AUC(0-t) [3, 8]: 645 ng·h/mL | Cmax [3, 8]: 127 ng/mL | AUC(0-inf) ([3]; oral Y101 60 mg/kg alone): 645 ng·h/mL | AUC(0-t) ([3]; oral Y101 60 mg/kg alone): 641 ng·h/mL | Cmax ([3]; oral Y101 60 mg/kg alone): 144 ng/mL | Tmax [3, 8]: 2.5 h | half-life [3, 8]: 1.46 h | Tmax ([3]; oral Y101 60 mg/kg alone): 3 h | half-life ([3]; oral Y101 60 mg/kg alone): 1.16 h | CL renal ([4]; 25 mg/kg, i.v. Y101 25 mg/kg + PRO 100 mg/kg): 2 mL/min/kg | CL renal ([4]; 25 mg/kg, i.v. Y101 25 mg/kg alone (Table 1, control of PRO study)): 2.08 mL/min/kg | CL renal ([4]; 25 mg/kg, i.v. Y101 25 mg/kg alone (Table 2, control of ETV study)): 2.47 mL/min/kg | CL renal [4, 7]: 2.67 mL/min/kg | cumulative excretion in the urine ([4]; i.v. Y101 25 mg/kg + ETV 0.06 mg/kg, at 30 h post-dose): 1.50 ± 0.232 % of the dose | cumulative urinary excretion ([4]; i.v. Y101 25 mg/kg + PRO 100 mg/kg, 0 to 48 h): 1.36 ± 0.106% | cumulative urinary excretion ([4]; i.v. Y101 25 mg/kg alone, at 48 h post-dose): 1.42 ± 0.04 % of the dose and 1.42 % of the dose | time and temperature dependence of uptake in kidney slices (rat kidney slices; 37 °C vs 4 °C, Y101 2.0 µM, M9 1.0 µM, 5 to 30 min): did not show significant time or temperature dependence

CC1(C)S[C@@H]2[C@H](NC(=O)Cc3ccccc3)C(=O)N2[C@H]1C(=O)O [PCG, benzylpenicillin]
inhibition of the uptake of M8 in kidney slices (rat kidney slices): inhibited significantly

CCCN(CCC)S(=O)(=O)c1ccc(C(=O)O)cc1 [PRO, probenecid, reference compound]
inhibition of the uptake of M8 in kidney slices (rat kidney slices): inhibited significantly | inhibition of the uptake of ES in hOAT3-HEK293 cells (hOAT3; ES 10 µM, PRO 100 µM, 10 min): inhibited in the presence of PRO | inhibition of the uptake of M8 in hOAT3-HEK293 cells (hOAT3; M8 10 µM, PRO 100 µM, ETV 10 µM): inhibited by the presence of PRO
